Experiments:
[1] = test system: HOIP PUB domain (15N HOIP 1-184); test: NMR binding (chemical shift perturbation) to 15N-labeled HOIP PUB domain; parameters: species or system Human; details: 15N BEST-TROSY NMR, 100 μM 15N HOIP 1-184, 20 mM phosphate pH 6.8, 50 mM NaCl, 2 mM DTT, 298K
Method: Standard triple-resonance experiments (HNCA, HN(CO)CA, HNCACB, CBCA(CO)NH, and HBHA(CO)NH) were acquired for the assignment of HOIP resonances. Constant time ^13C and ^13C-HSQC were acquired for the methyl and aromatic regions. In addition, (HB)CB(CGCD)HD and (HB)CB(CGCDCE)HE experiments coupled the Cβ of tyrosine resonances to the Hδ and Hε positions of the tyrosine ring, respectively.
Fluorescence polarization binding assays
10 µl of 100 nM FITC-Ahx peptides of either OTULIN (49-67) or p97 (797-806) were aliquoted into a 384-well low volume plate (Corning). Serial dilutions of HOIP PUB into FP assay buffer (20 mM Tris pH 7.4, 100 mM NaCl, 1 mM DTT) were prepared and 10 µl of this was aliquoted to FITC-Ahx peptide-containing wells. Fluorescence polarization was recorded on a PheraStar plate reader (BMG Labtech) using an optics module with $ex = 485 nm and $em = 520 nm. To derive binding constants (KD), polarization values were fitted to a one-site binding model using Graphpad Prism 5.
Nuclear Magnetic Resonance Spectroscopy
Uniformly labeled 15N or 13C, 15N samples of HOIP were prepared following growth in 2M9 medium supplemented with either 15N NH4Cl or 13C glucose.
Proteins were purified as described above and all samples were exchanged into NMR sample buffer (20 mM Na2HPO4/NaH2PO4 pH 6.8, 50 mM NaCl, 2 mM DTT). Lyophilized OTULIN and p97 PIM peptides were reconstituted in NMR sample buffer and the pH adjusted to pH 6.8 prior to use. NMR data were acquired at 298K on Bruker Avance III 600 MHz and Avance2+ 700
MHz spectrometers, equipped with cryogenic triple resonance TCI probes.
Standard triple resonance experiments (HNCA, HN(CO)CA, HNCACB, CBCA(CO)NH, HBHA(CO)NH) were acquired for the assignment of backbone
HOIP resonances. In addition, constant-time (ct) 13C and 13C-HSQC were acquired for the methyl and aromatic regions. For assignment of the H",H# resonances of HOIP tyrosines, (HB)CB(CGCD)HD and (HB)CB(CGCDCE)HE spectra were acquired, which coupled the C$ position of the tyrosine resonances to the H"/H# position of the tyrosine ring respectively. […]

HOIP 1-184 = test: analytical size-exclusion chromatography binding; parameters: species or system Human; details: Superdex 75; 30 µM HOIP, 25 µM OTULIN, 20 mM Tris pH 7.4, 150 mM NaCl, 2 mM DTT, room temperature 15 min
Method: All mutations were generated by site directed mutagenesis using the QuikChange method with KOD HotStart DNA polymerase.
Protein expression and purification
HOIP PUB domain constructs were expressed in Rosetta2 (DE3) pLacI cells.
Cells were grown at 30 °C in 2 xTY medium supplemented with 30 µg/ml kanamycin and 34 µg/ml chloramphenicol to an OD600 of 0.8. The culture was cooled to 18 °C prior to overnight induction with 400 µM IPTG. Cells were resuspended and lysed by sonication in lysis buffer (20 mM Tris pH 7.4, 300 mM NaCl, 50 mM imidazole, 2 mM #-mercaptoethanol, lysozyme, DNaseI
(Sigma) and protease inhibitor cocktail (Roche)). HOIP was purified by immobilized metal affinity chromatography using a HisTrap column (GE Life Sciences). The His6-tag was cleaved by overnight incubation with 3C protease. The protein was buffer exchanged into 20 mM Tris pH 8.5, 2 mM DTT and purified further by anion exchange chromatography (ResourceQ, GE Life Sciences). Eluted HOIP was then subjected to size exclusion chromatography (HiLoad 16/60 Superdex 75, GE Life Sciences) in buffer containing 20 mM Tris pH 8.5, 150 mM NaCl, 2 mM DTT. The resultant fractions were judged to be 99% pure following SDS-PAGE analysis and flash frozen. OTULIN was expressed and purified according to (Keusekotten et al., […]
kind gift from Mark Allen (MRC LMB).
Analytical size exclusion chromatography binding studies […]

[2] = test system: endogenous LUBAC (HOIP, HOIL-1, SHARPIN); test: coimmunoprecipitation of endogenous LUBAC components with HA-tagged OTULIN; format: cell-based; details: HA-OTULIN variants in HEK293T cells, anti-HA IP, western blot
Method: Transfected HEK293T or U2OS and NOD2 cells were lysed in the presence of protease and phosphatase inhibitors. Clarified lysates were incubated overnight with anti-V5 and anti-HA-agarose resin. […]
(§1) siOTULIN: […], siMM […]
Immunoprecipitation of HOIP-V5 and HA-OTULIN
HEK293T or U2OS/NOD2 cells were transfected as indicated. The cells were lysed in IP buffer buffer (25 mM HEPES pH 7.4, 150 mM KCl, 2 mM MgCl2, 1 mM EGTA, 0.5% (v/v) Triton X-100) supplemented with 5 mM NEM (Sigma-Aldrich), cOmplete protease inhibitor cocktail (Roche) and PhosSTOP
(Roche). After 30 minutes on ice, the lysates were cleared by centrifugation and incubated overnight at 4 °C with anti-V5-agarose resin or anti-HA-agarose resin. The beads were washed four times in ice-cold IP buffer and the precipitated material was eluted with 0.2 M glycine, pH 2.5. […]

[3] = test system: LUBAC-induced NFκB activity; test: NFκB luciferase reporter assay (LUBAC-induced); format: cell-based; details: HEK293T cells; for inhibition of NFκB activity induced by HOIP PIM pocket mutants (N102D, Y82A) + HOIL-1 (in words): compared with wild-type HOIP
Method: Cells were cotransfected with the NFκB luciferase reporter construct pBIIXluc and the thymidine kinase-renilla luciferase construct in addition to other vectors used in the study. After 24 hr, cells were lysed in passive lysis buffer (Promega), and luciferase activity was recorded. Protein expression levels were determined by western blotting of cell lysates. […]
as §1
Luciferase reporter assays
Cells were co-transfected with the NF!B luciferase reporter construct pBIIXluc and the thymidine kinase-renilla luciferase construct to enable normalization of transfection efficiency. Cells were co-transfected with additional plasmids as indicated. After 24 h cells were lysed in 75 %L passive lysis buffer (Promega) and luciferase activity was measured on a FLUOstar Omega
Microplate Reader (BMG LABTECH GmbH, Offenburg, Germany) using the DualLuciferase ® Assay System (Promega) according to the manufacturer’s instructions. Protein expression levels were determined by SDS-PAGE and Western blotting of cell lysates as indicated. The data shown represents mean ± SEM. A two-tailed Student´s t -test was applied to evaluate statistical

[4] = test system: HOIP (Met1-linked polyUb); test: HOIP autoubiquitination, purification of endogenous Met1-polyUb conjugates (M1-SUB pulldown); format: cell-based; details: U2OS/NOD2 cells, ectopic OTULIN variants, basal, identical with L18-MDP or TNF, immunoblot
From the text: Antibodies and affinity resin
The following antibodies and reagents were used according to the manufacturers’ instructions: anti-HA-agarose resin (A2095), anti-V5-agarose resin (A7345) and rabbit polyclonal anti-HOIP/RNF31 (SAB2102031, Sigma-Aldrich), rat monoclonal anti-HA (#11867423991, Roche Diagnostics, Burgess Hill, UK), mouse monoclonal anti-ubiquitin (IMG-5021, Imgenex, San Diego, CA), rabbit polyclonal anti-SHARPIN (#14626-1-AP, ProteinTech, Chicago, IL), rabbit polyclonal anti-RBCK1/HOIL-1 (NBP1-88301, Novus Biologicals, Littleton, CO), mouse monoclonal anti-V5 (MCA1360, AbD Serotec, Kidlington, UK), mouse monoclonal anti-$-actin (MAB1501, Chemicon, Millipore, Billerica, MA), rabbit polyclonal anti-HOIL-1, rabbit polyclonal anti-HOIP/RNF31
(Sigma), mouse monoclonal anti-p97 (Thermo Scientific). The
Fam105B/OTULIN antibody was previously described (Keusekotten et al., 2013). […]
HEK293ET, RPE1 and U2OS cells were collected, washed with PBS and lysed on ice for 30 minutes in SEC cell extraction buffer (150 mM NaCl, 50 mM Tris-HCl pH 7.4, 1 mM MgCl2, 1 mM DTT, 0.3% NP40, protease and (Roche)). […] In total 3.1 mg protein extract was analyzed on a Superdex 200 10/300 GL column (GE Life Sciences). […]

[5] = test system: HOIP (Met1-linked polyUb); details: overexpression of catalytically inactive OTULIN, ref Fiil et al., 2013, Keusekotten et al.; cited from earlier work
From the text: So far, the cellular consequences of OTULIN-LUBAC interaction are unclear. […] We wondered whether this depended on the formation of the OTULIN-HOIP complex or whether OTULIN would act in trans on the complex. When coexpressed with HOIL-1, HOIP PUB binding mutants autoubiquitinated in cells exp ...

## OTULIN: full-length OTULIN (aa 1–352), Met1-specific deubiquitinase
[1]
  binding / chemical shift perturbations of HOIP PUB domain (in words): pattern of HOIP CSPs was identical
HOIP 1-184
  binding to HOIP aa 1-184 (in words): able to bind
[2]
  coimmunoprecipitation of endogenous LUBAC components (in words): coimmunoprecipitated all proteins from the endogenous LUBAC complex
[3]; HOIL-1 + wild-type HOIP
  inhibition of NFκB activity induced by wild-type LUBAC (in words): abrogated NFκB activity
[3]
  inhibition of NFκB activity induced by HOIP PIM pocket mutants (N102D, Y82A) + HOIL-1 (in words): less effective in inhibiting activity
[3]; listed as wild-type OTULIN
  inhibition of NFκB activity induced by HOIP PIM pocket mutants (N102D, Y82A) + HOIL-1 (in words): reduced the ability of OTULIN to antagonize LUBAC-induced NFκB activity

## OTULIN C129A: catalytically inactive OTULIN C129A mutant (CA)
[4]
  HOIP autoubiquitination with Met1-linked polyUb (in words): led to extensive HOIP ubiquitination
[5]
  HOIP autoubiquitination with Met1-linked polyUb (in words), previously shown: lead to the autoubiquitination of HOIP with Met1-linked polyUb chains

Source: paper PMC4017264 (Molecular Cell, 2014)
